Results from ChEMBL document CHEMBL1139330, “Synthesis and neuropharmacological evaluation of esters of R(-)-N-alkyl-11-hydroxy-2-methoxynoraporphines” (Bioorg Med Chem Lett, 2009).
pKi: −log10 of the molar value. Values belong to the compound of their own block, whether it stands above or below them. Active and inactive are the calls of the source. The calls are words filed in the database; no cut-off is given here.

Columns and labels:
D(1A) dopamine receptor = D(1A) dopamine receptor (Rattus norvegicus, UniProt P18901); test: Displacement of [3H]SCH23390 from dopamine D1 receptor in rat forebrain
[1] = Selectivity ratio of Ki for dopamine D1 receptor to Ki for dopamine D2 receptor in rat forebrain
D(2) dopamine receptor = D(2) dopamine receptor (Rattus norvegicus, UniProt P61169); test: Displacement of [3H]nemonapride from dopamine D2 receptor in rat forebrain
Rattus norvegicus [2] = test: Induction of locomotor activity in adult rat at 4 umol/kg, ip after 12 to 24 hrs; type: functional, organism-based
Rattus norvegicus [3] = test: Toxicity in adult rat assessed as induction of sedation at 4 umol/kg, ip after 12 to 20 hrs; type: organism-based; conditions: in vivo

Sequence of D(1A) dopamine receptor (P18901 whole entry): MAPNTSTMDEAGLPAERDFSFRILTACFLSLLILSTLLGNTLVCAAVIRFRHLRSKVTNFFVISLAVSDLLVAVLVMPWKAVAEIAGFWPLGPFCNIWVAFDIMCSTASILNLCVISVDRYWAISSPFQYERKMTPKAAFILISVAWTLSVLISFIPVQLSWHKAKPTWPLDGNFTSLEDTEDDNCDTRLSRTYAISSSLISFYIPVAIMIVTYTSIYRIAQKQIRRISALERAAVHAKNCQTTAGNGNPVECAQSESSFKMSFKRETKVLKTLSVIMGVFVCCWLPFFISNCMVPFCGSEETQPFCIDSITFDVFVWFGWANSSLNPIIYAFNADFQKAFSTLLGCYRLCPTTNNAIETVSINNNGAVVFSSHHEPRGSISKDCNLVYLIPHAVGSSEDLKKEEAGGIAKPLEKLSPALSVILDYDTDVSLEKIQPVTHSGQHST
Sequence of D(2) dopamine receptor (P61169 whole entry): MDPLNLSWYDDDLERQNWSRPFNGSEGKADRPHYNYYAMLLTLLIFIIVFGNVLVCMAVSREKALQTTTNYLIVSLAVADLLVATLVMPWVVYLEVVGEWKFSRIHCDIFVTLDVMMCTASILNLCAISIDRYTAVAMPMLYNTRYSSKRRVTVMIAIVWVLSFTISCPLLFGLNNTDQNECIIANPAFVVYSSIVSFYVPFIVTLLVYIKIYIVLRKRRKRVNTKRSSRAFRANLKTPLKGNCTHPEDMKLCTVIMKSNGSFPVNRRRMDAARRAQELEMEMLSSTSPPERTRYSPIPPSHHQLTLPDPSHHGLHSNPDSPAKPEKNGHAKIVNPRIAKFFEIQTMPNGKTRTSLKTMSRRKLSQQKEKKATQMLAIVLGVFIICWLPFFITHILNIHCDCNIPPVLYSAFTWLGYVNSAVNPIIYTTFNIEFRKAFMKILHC

Compound: CCCN1CCc2cccc3c2[C@H]1Cc1cccc(OC(C)=O)c1-3
- pKi (D(1A) dopamine receptor): < 5.00
- ratio [1]: > 138

Compound: CCCCC(=O)Oc1cccc2c1-c1cccc3c1[C@@H](C2)N(CCC)CC3
- pKi (D(1A) dopamine receptor): < 4.70
- ratio [1]: > 58

Compound: CCCCC(=O)Oc1cccc2c1-c1cc(OC)cc3c1[C@@H](C2)N(C)CC3
- pKi (D(1A) dopamine receptor): 5.83
- pKi (D(2) dopamine receptor): 6.72
- ratio [1]: 8

- ratio [1]: 532
Compound: CN1CCc2cccc3c2[C@H]1Cc1ccc(O)c(O)c1-3 [APOMORPHINE]

Compound: COc1cc2c3c(c1)-c1c(O)cccc1C[C@H]3N(C)CC2
- ratio [1]: 0.2

Compound: CCCN1CCc2cc(OC)cc3c2[C@H]1Cc1cccc(O)c1-3
- ratio [1]: 38

Compound: CCCCC(=O)Oc1cccc2c1-c1cc(OC)cc3c1[C@@H](C2)N(CCC)CC3
- pKi (D(1A) dopamine receptor): < 5.00
- pKi (D(2) dopamine receptor): 7.05
- ratio [1]: > 112
- Activity (Rattus norvegicus [2]): inactive
- Activity (Rattus norvegicus [3]): Toxic

Compound: CCCN1CCc2cc(OC)cc3c2[C@H]1Cc1cccc(OC(C)=O)c1-3
- pKi (D(1A) dopamine receptor): < 5.00
- pKi (D(2) dopamine receptor): 7.72
- ratio [1]: > 529
- Activity (Rattus norvegicus [2]): Active

Compound: COc1cc2c3c(c1)-c1c(cccc1OC(C)=O)C[C@H]3N(C)CC2
- pKi (D(1A) dopamine receptor): 6.28
- pKi (D(2) dopamine receptor): 6.78
- ratio [1]: 3
